Measurements as given in article PMC9065575, “Synthesis, computational studies, antimycobacterial and antibacterial properties of pyrazinoic acid–isoniazid hybrid conjugates” (RSC Advances, 2019).
In brackets after ≈: the same amount, converted by molar mass. Several values for one entry are separate records, joined by “and”; a condition that tells them apart may be missing. Equal entries are not always repeated. Where two headings read alike, the source gives them in different places.

Key:
[1] = test system: Mycobacterium marinum; assay: microbe, parasite or virus in culture; type: cell-based; conditions: clinical isolate, read-out: Minimum inhibitory concentration (MIC) M. marinum
[2] = test system: Mycobacterium fortuitum; assay: microbe, parasite or virus in culture; type: cell-based; conditions: for MIC: Mycolicibacterium fortuitum
[3] = test system: Mycobacterium bovis; assay: microbe, parasite or virus in culture; type: cell-based; conditions: Mycobacterium tuberculosis variant bovis, read-out: Minimum inhibitory concentration (MIC) M. bovis
[4] = test system: M. tuberculosis Erdman strain expressing luciferase; assay: microbe, parasite or virus in culture; type: cell-based, Mycobacterium tuberculosis; conditions: Mycobacterium tuberculosis, ERDMAN, 168 h; 30 μg mL^−1, pH 7.0, 7 days, vs untreated controls; read-out: Observed % growth inhibition at 30 µg/mL
[5] = test system: RPE1 (normal human immortalized retinal epithelial) cell line; assay: Antiproliferative properties by MTT technique; type: cell-based; conditions: RPE1 cells, 100 μM
Description: Antiproliferative properties of the synthesized compounds were screened against RPE1 (normal human immortalized retinal epithelial) cell line to determine the toxicity/selectivity towards normal cell by the standard MTT technique.[23]
Antiproliferative properties of the synthesized compounds were tested against RPE1 (normal human immortalized retinal epithelial) cell line at 100 μM to determine the toxicity/selectivity towards normal cell by the standard MTT technique.[23]

[6] = test system: Enterococcus faecalis; assay: Aerobic antibacterial MIC, standard dilution technique; type: cell-based; conditions: Enterococcus faecalis, clinical isolate; value in parentheses; read-out: Minimum inhibitory concentration (MIC) Enterococcus faecalis
Description: Antibacterial properties were investigated for the synthesized compounds against a variety of Gram-positive (Staphylococcus aureus, Enterococcus faecalis) and Gram-negative (Klebsiella pneumonia, Proteus vulgaris, Pseudomonas aeruginosa) clinical isolate bacteria utilizing the standard technique.[21]

[7] = clinical isolate, observed MIC, read-out: Minimum inhibitory concentration (MIC) M. fortuitum
[8] = clinical isolate, read-out: Minimum inhibitory concentration (MIC) M. fortuitum
[9] = M. fortuitum, observed values listed with the BMLR-QSAR model, read-out: Observed MIC (Table S6)

SMILES | MIC ([1]; observed MIC) [µM] | MIC [1] [µg/mL] | MIC [2, 7] [µM] | MIC [2, 8] [µg/mL] | MIC [3] | inhibition at 30 µg/mL [4] [%] | Percentage of cell proliferation ± SD [5] [%] | melting point [°C] | MIC [6] [µM] | MIC [2, 9] [µM] | potency relative to INH (M. fortuitum MIC) ([2]; vs INH MIC 145.8 μM) | potency relative to PZA (M. fortuitum MIC) ([2]; vs PZA MIC 81.2 μM) [folds]
O=C(N[C@@H](Cc1c[nH]c2ccccc12)C(=O)O)c1cnccn1 [10g, (Pyrazine-2-carbonyl)-L-tryptophan] | > 64.5 | > 20 | > 64.5 | > 20 | > 20 µg/mL and > 64.5 µM | 8.8 | 80.1 ± 7.4 | 127 to 129 |  |  |  | 
CC(C)[C@H](NC(=O)c1cnccn1)C(=O)O [10b, (Pyrazine-2-carbonyl)-L-valine] | > 89.6 | > 20 | > 89.6 | > 20 | > 20 µg/mL and > 89.6 µM | 91 | 82.1 ± 3.0 | 160 to 162 | 0.13 (≈ 0.029 µg/mL) |  |  | 
CC[C@H](C)[C@H](NC(=O)c1cnccn1)C(=O)NNC(=O)c1ccncc1 [12c, N-((2S,3S)-1-(2-Isonicotinoylhydrazineyl)-3-methyl-1-oxopentan-2-yl)pyrazine-2-carboxamide] | 56.1 | 20 | 56.1 | 20 | > 20 µg/mL and > 56.1 µM | 84.1 | 84.6 ± 3.7 | 168 to 170 |  | 56100 |  | 
CC(C)C[C@H](NC(=O)c1cnccn1)C(=O)NNC(=O)c1ccncc1 [12a, (S)-N-(1-(2-Isonicotinoylhydrazineyl)-4-methyl-1-oxopentan-2-yl)pyrazine-2-carboxamide] | 56.1 | 20 | 56.1 | 20 | > 20 µg/mL and > 56.1 µM | 68.9 | 80.1 ± 4.2 | 160 to 162 |  | 56100 |  | 
O=C(NNC(=O)C(Cc1ccccc1)NC(=O)c1cnccn1)c1ccncc1 (stereo not shown) [12f, N-(1-(2-Isonicotinoylhydrazineyl)-1-oxo-3-phenylpropan-2-yl)pyrazine-2-carboxamide] | 25.6 | 10 | 25.6 | 10 | > 20 µg/mL and > 51.2 µM |  | 95.5 ± 8.6 | 143 to 145 |  |  | about 5.6 folds | ~3.2
CC(C)[C@H](NC(=O)c1cnccn1)C(=O)NNC(=O)c1ccncc1 [12b, (S)-N-(1-(2-Isonicotinoylhydrazineyl)-3-methyl-1-oxobutan-2-yl)pyrazine-2-carboxamide] | 58.4 | 20 | 58.4 | 20 | > 20 µg/mL and > 58.4 µM | 84.2 | 96.4 ± 2.7 | 175 to 177 | 0.33 (≈ 0.113 µg/mL) | 58400 |  | 
CSCC[C@H](NC(=O)c1cnccn1)C(=O)O [10d, (Pyrazine-2-carbonyl)-L-methionine] | > 78.3 | > 20 | > 78.3 | > 20 | > 20 µg/mL and > 78.3 µM | 80.2 | 82.9 ± 8.5 | 136 to 138 |  |  |  | 
CC(C)C[C@H](NC(=O)c1cnccn1)C(=O)O [10a, (Pyrazine-2-carbonyl)-L-leucine] | 84.3 | 20 | 84.3 | 20 | > 20 µg/mL and > 84.3 µM | 88.8 | 84.6 ± 0.7 | 155 to 156 |  | 84300 |  | 
O=C(NNC(=O)[C@H](Cc1c[nH]c2ccccc12)NC(=O)c1cnccn1)c1ccncc1 [12g, (S)-N-(3-(1H-Indol-3-yl)-1-(2-isonicotinoylhydrazineyl)-1-oxopropan-2-yl)pyrazine-2-carboxamide] | 46.6 | 20 | 46.6 | 20 | > 20 µg/mL and > 46.6 µM | 96 | 92.2 ± 1.2 | 243 to 245 |  | 46600 |  | 
O=C(NNC(=O)[C@H](Cc1ccccc1)NC(=O)c1cnccn1)c1ccncc1 [12e, (S)-N-(1-(2-Isonicotinoylhydrazineyl)-1-oxo-3-phenylpropan-2-yl)pyrazine-2-carboxamide] | 51.2 | 20 | 51.2 | 20 | > 20 µg/mL and > 51.2 µM | 94.8 | 83.2 ± 5.7 | 177 to 179 |  | 51200 |  | 
CC[C@@H](C)[C@H](NC(=O)c1cnccn1)C(=O)O [10c, (Pyrazine-2-carbonyl)-L-alloisoleucine] | > 84.3 | > 20 | > 84.3 | > 20 | > 20 µg/mL and > 84.3 µM | 84.3 | 81.8 ± 5.5 | 164 to 166 |  |  |  | 
